Holding throughout (format): cell-based
Set-up in all cases: expressed in transfected cells; host or cells: CV-1 cells (African green monkey kidney)

The target of assay [1] is T1, RARα (Homo sapiens, UniProt P10276).
T1 sequence (P10276 1-462): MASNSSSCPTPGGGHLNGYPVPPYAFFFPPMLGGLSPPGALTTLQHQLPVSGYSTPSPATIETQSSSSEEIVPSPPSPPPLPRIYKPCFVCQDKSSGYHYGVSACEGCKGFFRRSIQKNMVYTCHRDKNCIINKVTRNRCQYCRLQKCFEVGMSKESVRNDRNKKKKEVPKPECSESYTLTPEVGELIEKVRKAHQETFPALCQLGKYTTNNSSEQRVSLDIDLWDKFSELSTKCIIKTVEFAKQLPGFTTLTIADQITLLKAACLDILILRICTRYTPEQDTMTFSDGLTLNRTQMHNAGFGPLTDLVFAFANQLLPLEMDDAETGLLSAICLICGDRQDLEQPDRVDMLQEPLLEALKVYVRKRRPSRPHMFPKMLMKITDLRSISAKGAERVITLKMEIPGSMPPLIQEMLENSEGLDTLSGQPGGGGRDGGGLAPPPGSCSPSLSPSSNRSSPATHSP
The assay can be described thus: co-transfection assay, antagonist activity on RARα. To be noted: CV-1 cells, in presence of known RAR agonist TTNPB; for IC50: read-out: IC50 antagonist potency, RARα. The source says: (§1) This assay is described in further detail in U.S. Pat. Nos. 4,981,784 and 5,071,773, the disclosures of which are incorporated herein by reference.
(§2) In the co-transfection assay, a cloned cDNA for an IR (e.g., human RARα:, RARβ, RXRγ) under the control of a constitutive promoter (e.g., the SV 40 promoter) is introduced by transfection (a procedure to induce cells to take up foreign genes) into a background cell substantially devoid of endogenous IRs. This introduced gene directs the recipient cells to make the IR protein of interest. A second gene is also introduced (co-transfected) into the same cells in conjunction with the IR gene. This second gene, comprising the cDNA for a reporter protein, such as firefly luciferase (LUC), is controlled by an appropriate hormone responsive promoter containing a hormone response element (HRE). This reporter plasmid functions as a reporter for the transcription-modulating activity of the target IR. Thus, the reporter acts as a surrogate for the products (mRNA then protein) normally expressed by a gene under control of the target receptor and its native hormone.
(§3) The co-transfection assay can detect small molecule agonists or antagonists of target IRs. Exposing the transfected cells to an agonist ligand compound increases reporter activity in the transfected cells. This activity can be conveniently measured, e.g., by increasing luciferase production, which reflects compound-dependent, IR-mediated increases in reporter transcription. To detect antagonists, the co-transfection assay is carried out in the presence of a constant concentration of an agonist to the target IR (e.g., all-trans retinoic acid for RARα) known to induce a defined reporter signal. Increasing concentrations of a suspected antagonist will decrease the reporter signal (e.g., luciferase production). The co-transfection assay is therefore useful to detect both agonists and antagonists of specific IRs. Furthermore, it determines not only whether a compound interacts with a particular IR, but whether this interaction mimics (agonizes) or blocks (antagonizes) the effects of the native regulatory molecules on target gene expression, as well as the specificity and strength of this interaction.
(§4) CV-1 cells (African green monkey kidney fibroblasts) were cultured in the presence of Dulbecco's Modified Eagle Medium (DMEM) supplemented with 10% charcoal resin-stripped fetal bovine serum then transferred to 96-well microtiter plates one day prior to transfection.
(§5) To determine RAR and/or RXR agonist activity of the compounds of the present invention, the CV-1 cells were transiently transfected by calcium phosphate coprecipitation according to the procedure of Berger et al., 41 J. Steroid Biochem. Mol. Biol., 733 (1992) with the following receptor expressing plasmids: pRShRARα: Giguere et al., 330 Nature, 624 (1987); pRShRARβ and pRShRARγ, Ishikawa et al., 4 Mol. Endocrin., 837 (1990); pRShRXRα, Mangelsdorf et al., 345 Nature, 224 (1990); and pRSmRXRβ and pRSmRXRγ, Mangelsdorf et al., 6 Genes & Devel., 329 (1992), the disclosures of which are herein incorporated by reference. Each of these receptor expressing plasmids was co-transfected at a concentration of 5 ng/well, along with a basal reporter plasmid at 100 ng/well, the internal control plasmid pRS-β-Gal at 50 ng/well and filler DNA, pGEM at 45 ng/well.
(§6) The basal reporter plasmid D-MTV-LUC (Hollenberg and Evans, 55 Cell, 899 (1988), the disclosure of which is herein incorporated by reference) containing two copies of the TRE-palindromic response element described in Umesono et al., 336 Nature, 262 (1988), the disclosure of which is herein incorporated by reference, was used in transfections for the RARs, and the reporter plasmid CRBPIIFKLUC, which contains an RXRE (retinoid X receptor response element, as described in Mangelsdorf et al., 66 Cell, 555 (1991), the disclosure of which is herein incorporated by reference), was used in transfections for the RXRs.

The target in assay [2] is T2, RARγ (Homo sapiens, UniProt P13631).
T2 sequence (P13631 1-454): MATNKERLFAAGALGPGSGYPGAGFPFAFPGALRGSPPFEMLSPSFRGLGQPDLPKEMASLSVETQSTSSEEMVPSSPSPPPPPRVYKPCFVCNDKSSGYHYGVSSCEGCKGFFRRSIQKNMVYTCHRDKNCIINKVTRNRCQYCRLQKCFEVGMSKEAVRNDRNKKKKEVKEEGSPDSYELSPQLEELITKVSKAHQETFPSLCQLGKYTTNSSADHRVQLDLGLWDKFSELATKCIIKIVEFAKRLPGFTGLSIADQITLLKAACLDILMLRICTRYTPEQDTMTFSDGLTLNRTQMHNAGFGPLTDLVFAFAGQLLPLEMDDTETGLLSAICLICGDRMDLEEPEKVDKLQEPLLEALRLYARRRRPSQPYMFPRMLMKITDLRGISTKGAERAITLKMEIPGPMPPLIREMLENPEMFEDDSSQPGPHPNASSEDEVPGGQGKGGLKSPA
The assay can be described thus: co-transfection assay, antagonist activity on RARγ. To be noted: CV-1 cells, in presence of known RAR agonist TTNPB; for IC50: read-out: IC50 antagonist potency, RARγ.
Source text: as §1, §2, §3, §4, §5, §6

Assay [3] has as its target T1, RARα. The assay can be described thus: co-transfection assay, agonist activity on RARα. The settings on record: CV-1 cells; read-out: EC50 agonist potency, RARα.
Source text: as §1, §2, §3
CV-1 cells (African green monkey kidney fibroblasts) were cultured in the presence of Dulbecco's Modified Eagle Medium (DMEM) supplemented with 10% charcoal resin-stripped fetal bovine serum then transferred to 96-well microtiter plates one day prior to transfection. […]

Usually IC50 stands for the point on the concentration scale where inhibition reaches its midpoint. Usually EC50 stands for the concentration needed to bring the measured effect to its halfway point. `CCCCOc1c(C(C)(C)C)cc(/C(C)=C/C=C/C(C)=C/C(=O)O)cc1C(C)(C)C` [Compound 7, 2E, 4E, 6E-[7-(3,5-Di-t-butyl-4-n-butoxyphenyl)-3-methyl]-octa-2,4,6-trienoic acid]: in assay [1], the “efficacy of antagonist, % of maximal inhibition, RARα (in parentheses after IC50)” value was 90% and the IC50 stood at 4 nM. Moreover, in assay [2], the “efficacy of antagonist, % of maximal inhibition, RARγ (in parentheses after IC50)” value was determined as 91% and the IC50 was 2 nM. Further, the EC50 in assay [3] was above 10000 nM.

For the compound `CCCOc1c(C(C)(C)C)cc(/C(C)=C/C=C/C(C)=C/C(=O)O)cc1C(C)(C)C` [Compound 8, 2E, 4E, 6E-[7-(3,5-Di-t-butyl-4-n-propoxyphenyl)-3-methyl]-octa-2,4,6-trienoic acid], in assay [1], the “efficacy of antagonist, % of maximal inhibition, RARα (in parentheses after IC50)” value was found to be 90% and the IC50 stood at 2 nM. In assay [2], the “efficacy of antagonist, % of maximal inhibition, RARγ (in parentheses after IC50)” value was 85% and the IC50 was 3 nM. Besides, the EC50 in assay [3] is above 10000 nM.

As for `CCCCCOc1c(C(C)(C)C)cc(/C(C)=C/C=C/C(C)=C/C(=O)O)cc1C(C)(C)C` [Compound 9, 2E, 4E, 6E-[7-(3,5-Di-t-butyl-4-n-pentoxyphenyl)-3-methyl]-octa-2,4,6-trienoic acid], in assay [1], the “efficacy of antagonist, % of maximal inhibition, RARα (in parentheses after IC50)” value is listed as 91% and the IC50 was 5 nM. In addition, in assay [2], the “efficacy of antagonist, % of maximal inhibition, RARγ (in parentheses after IC50)” value was 80% and the IC50 is 5 nM. Besides, the EC50 in assay [3] is above 10000 nM.

For the compound `C=C(c1ccccc1)c1cc(/C(C)=C/C=C/C(C)=C/C(=O)O)cc(C(C)(C)C)c1` [Compound 17, (2E,4E,6E)-7-[3-t-butyl-5-(1-phenyl-vinyl)-phenyl]-3-methyl-octa-2,4,6-trienoic acid], in assay [1], the “efficacy of antagonist, % of maximal inhibition, RARα (in parentheses after IC50)” value is 98% and the IC50 turned out to be 2 nM. Further, in assay [2], the “efficacy of antagonist, % of maximal inhibition, RARγ (in parentheses after IC50)” value is recorded as 85% and the IC50 came to 2 nM. Besides, in assay [3], the EC50 is above 10000 nM.

Values taken from patent US5998654A, “Retinoic acid receptor antagonist compounds and methods” (Ligand Pharmaceuticals Incorporated, priority 1997, dated 1999).
